{"source": "patent US8940861B2", "about": "“Variants of ancestral uricases and uses thereof” (Georgia Tech Research Corporation, priority 2010, dated 2015)", "key": {"[1]": {"tested_on": "ancestral mammalian uricase Node 26 (four identical subunits), SEQ ID NO:3", "experiment": "Uricolytic activity, A293 decrease, steady-state kinetics", "assay_type": "biochemical", "conditions": "phosphate buffered saline, pH 7.4", "from_the_text": "(§1) Uricases were designed using Ancestral Sequence Reconstruction (ASR) to reconstruct and resurrect ancestral forms of human uricase based upon an analysis of modern mammalian uricases. See generally Gaucher, “Ancestral sequence reconstruction as a tool to understand natural history and guide synthetic biology: Realizing (and extending) the vision of Zukerkandl and Pauling” in ANCESTRAL SEQUENCE RECONSTRUCTION, ed. David A. Liberles, pp. 20-33 (Oxford University Press, 2007). Ancestral uricase sequences corresponding to various nodes of the phylogenetic tree were inferred by analyzing modern mammalian uricase sequences (FIG. 1), and uricases were designed based upon those inferred sequences. Uricase subunits of the present invention may therefore comprise an amino acid sequence corresponding to the inferred amino acid sequence at one of the nodes highlighted in FIG. 1 (e.g., Node 18, Node 19, Node 26, Node 27, Node 30, Node 31 or Node 32) or to a variant of the inferred amino acid sequence at one of the nodes highlighted in FIG. 1."}, "[2]": {"tested_on": "ancestral mammalian uricase Node 19 (four identical subunits), SEQ ID NO:2", "experiment": "Uricolytic activity, A293 decrease, steady-state kinetics", "assay_type": "biochemical", "conditions": "0.1M Na2HPO4/Na2H2PO4, pH 7.4; 24° C.", "from_the_text": "as §1"}, "[3]": {"tested_on": "ancestral mammalian uricase Node 27 (four identical subunits), SEQ ID NO:4", "experiment": "Uricolytic activity, A293 decrease, steady-state kinetics", "assay_type": "biochemical", "conditions": "phosphate buffered saline, pH 7.4; 24° C.", "from_the_text": "as §1"}, "[4]": {"tested_on": "pig-baboon chimeric uricase (amino acids 1-225 of SEQ ID NO:10 and amino acids 226-304 of SEQ ID NO:11)", "experiment": "Uricolytic activity, A293 decrease, steady-state kinetics", "assay_type": "biochemical", "conditions": "0.1M Na2HPO4/Na2H2PO4, pH 7.4; 24° C."}, "[5]": {"target": "T1, pig uricase, SEQ ID NO:10 (Sus scrofa, UniProt P16164)", "T1 sequence (P16164 1-304)": "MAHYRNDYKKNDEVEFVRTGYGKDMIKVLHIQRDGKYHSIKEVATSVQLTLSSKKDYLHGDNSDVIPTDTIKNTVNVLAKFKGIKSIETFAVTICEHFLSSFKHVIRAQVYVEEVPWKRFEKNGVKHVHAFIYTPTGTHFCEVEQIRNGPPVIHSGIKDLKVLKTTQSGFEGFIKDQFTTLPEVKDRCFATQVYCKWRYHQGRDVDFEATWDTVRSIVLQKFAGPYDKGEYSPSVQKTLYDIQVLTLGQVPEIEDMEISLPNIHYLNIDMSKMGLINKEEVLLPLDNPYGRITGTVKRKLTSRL", "conditions": "0.1M Na2HPO4/Na2H2PO4, pH 7.4; 24° C."}}}
{"smiles": "O=c1[nH]c(=O)c2[nH]c(=O)[nH]c2[nH]1", "note": "[uric acid]", "values": [{"measurement": "Km", "setting": "[1]; 24° C.", "value": 4.9, "unit": "µM"}, {"measurement": "Vmax", "setting": "[1]; 24° C.", "value": "1.4 × 10^−3 μmol uric acid/min"}, {"measurement": "kcat", "setting": "[1]; 24° C.", "value": 1.25, "unit": "s⁻¹"}, {"measurement": "Km", "setting": "[1]; 37° C.", "value": 4.9, "unit": "µM"}, {"measurement": "Vmax", "setting": "[1]; 37° C.", "value": "4.3 × 10^−3 μmol uric acid/min"}, {"measurement": "kcat", "setting": "[1]; 37° C.", "value": 3.75, "unit": "s⁻¹"}, {"measurement": "Km", "setting": "[2]", "value": 4, "unit": "µM"}, {"measurement": "Vmax", "setting": "[2]", "value": "4.3 × 10^−3 μmol uric acid/min"}, {"measurement": "kcat", "setting": "[2]", "value": 5.42, "unit": "s⁻¹"}, {"measurement": "Km", "setting": "[3]", "value": 5.3, "unit": "µM"}, {"measurement": "Vmax", "setting": "[3]", "value": "8.1 × 10^−4 μmol uric acid/min"}, {"measurement": "kcat", "setting": "[3]", "value": 0.417, "unit": "s⁻¹"}, {"measurement": "Km", "setting": "[4]", "value": 2.2, "unit": "µM"}, {"measurement": "Vmax", "setting": "[4]", "value": "2.8 × 10^−3 μmol uric acid/min"}, {"measurement": "kcat", "setting": "[4]", "value": 4.78, "unit": "s⁻¹"}, {"measurement": "Vmax", "setting": "[5]", "value": "2.4 × 10^−3 μmol uric acid/min"}]}
